Laboratory results as given in patent publication US12410160B2 (Gilead Sciences, Inc., priority 2021, dated 2025).

Legend:
[1] = target: human KHK-C (Homo sapiens (Human), UniProt P50053); assay: KHK Biochemical Assay (IC50), ADP-Glo, KHK-C; settings: average of at least two separate assays
In short: (§1)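 ADP-Glo luminescence measured ADP made over a 4 h room-temperature reaction of ATP plus fructose, started after 30 min compound–enzyme pre-incubation. Buffer: 50 mM Hepes pH 7.4, 140 mM KCl, 5 mM MgCl2, 0.01% Triton-X. Enzyme was His-tagged, BL21 (DE3)-expressed, Ni-NTA-purified; compounds in 1:3 DMSO dilution series.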

[2] = target: human KHK-A (Homo sapiens (Human), UniProt P50053); assay: KHK Biochemical Assay (IC50), ADP-Glo, KHK-A; settings: average of at least two separate assays
Sequence of human KHK-A (P50053 other isoform, or with tags, fused parts or gaps): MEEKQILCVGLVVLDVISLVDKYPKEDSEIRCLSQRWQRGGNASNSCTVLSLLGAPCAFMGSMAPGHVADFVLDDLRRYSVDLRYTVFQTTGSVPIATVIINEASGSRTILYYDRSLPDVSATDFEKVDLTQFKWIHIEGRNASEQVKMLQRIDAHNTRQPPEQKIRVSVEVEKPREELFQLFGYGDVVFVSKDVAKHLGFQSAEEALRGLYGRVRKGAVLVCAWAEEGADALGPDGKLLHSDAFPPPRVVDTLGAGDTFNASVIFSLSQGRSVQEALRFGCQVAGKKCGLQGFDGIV
In short: as §1

Sequence of human KHK-C (P50053 whole entry): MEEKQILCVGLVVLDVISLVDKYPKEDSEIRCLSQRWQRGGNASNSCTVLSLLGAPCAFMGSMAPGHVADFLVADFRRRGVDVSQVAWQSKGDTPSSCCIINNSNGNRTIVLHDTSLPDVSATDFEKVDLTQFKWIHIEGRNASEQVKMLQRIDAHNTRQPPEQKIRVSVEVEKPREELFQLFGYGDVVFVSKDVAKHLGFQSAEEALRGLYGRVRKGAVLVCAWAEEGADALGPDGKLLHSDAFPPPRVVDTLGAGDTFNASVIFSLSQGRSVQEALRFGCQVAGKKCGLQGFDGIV

IC50 [1] [nM] | IC50 [2] [nM] | IC50 ([1]; ADP-Glo) [nM] | IC50 ([2]; ADP-Glo) [nM] | Compound
 |  | 4.1 | 4.8 | C[C@H]1[C@H](O)CN1c1nc(-c2ccc(C3(N)CCOCC3)cc2)c2c(n1)C(F)(F)CC2 [Example 838, (2S,3R)-1-(4-(4-(4-aminotetrahydro-2H-pyran-4-yl)phenyl)-7,7-difluoro-6,7-dihydro-5H-cyclopenta[d]pyrimidin-2-yl)-2-methylazetidin-3-ol]
 |  | 15.9 | 15.8 | C[C@H]1CCN1c1nc2c(c(-c3ccc(OCc4ccccc4)c(S(C)(=N)=O)c3)n1)CCC2 (stereo partly drawn) [Example 839, (2-(benzyloxy)-5-(2-((S)-2-methylazetidin-1-yl)-6,7-dihydro-5H-cyclopenta[d]pyrimidin-4-yl)phenyl)(imino)(methyl)4^6-sulfanone]
 |  | 26.3 | 7.7 | COc1ccc(-c2nc(N3CC[C@@H]3C)nc3c2CCC3)cc1S(=N)(=O)C1CCOCC1 (stereo partly drawn) [Example 840, imino(2-methoxy-5-(2-((S)-2-methylazetidin-1-yl)-6,7-dihydro-5H-cyclopenta[d]pyrimidin-4-yl)phenyl)(tetrahydro-2H-pyran-4-yl)-λ^6-sulfanone]
 |  | 40.5 | 28.1 | C[C@H]1CCN1c1nc2c(c(-c3ccc(C(N)=O)c(Cc4ccccc4)c3)n1)CCC2 [Example 841, (S)-2-benzyl-4-(2-(2-methylazetidin-1-yl)-6,7-dihydro-5H-cyclopenta[d]pyrimidin-4-yl)benzamide]
 |  | 576 | 304 | C[C@H]1CCN1c1nc2c(c(-c3ccc(C(N)=O)c(SCc4ccccc4)c3)n1)CCC2 [Example 842, (S)-2-(benzylthio)-4-(2-(2-methylazetidin-1-yl)-6,7-dihydro-5H-cyclopenta[d]pyrimidin-4-yl)benzamide]
 |  | 80.8 | 130 | C[C@H]1CCN1c1nc2c(c(-c3ccc(C(N)=O)c(C(=O)c4ccccc4)c3)n1)CCC2 [Example 843, (S)-2-benzoyl-4-(2-(2-methylazetidin-1-yl)-6,7-dihydro-5H-cyclopenta[d]pyrimidin-4-yl)benzamide]
 |  | 8.5 | 2.5 | COc1ccc(-c2nc(N3CC[C@@H]3C)nc3c2CCC3)cc1S(=N)(=O)CC1COCOC1 (stereo partly drawn) [Example 844, ((1,3-dioxan-5-yl)methyl)(imino)(2-methoxy-5-(2-((S)-2-methylazetidin-1-yl)-6,7-dihydro-5H-cyclopenta[d]pyrimidin-4-yl)phenyl)-λ^6-sulfanone]
 |  | 182 | 47 | COc1ccc(-c2nc(N3CC[C@@H]3C)nc3c2CCC3)cc1S(=N)(=O)c1ccc(C#N)c(Cl)c1 (stereo partly drawn) [Example 845, 2-chloro-4-(2-methoxy-5-(2-((S)-2-methylazetidin-1-yl)-6,7-dihydro-5H-cyclopenta[d]pyrimidin-4-yl)phenylsulfonimidoyl)benzonitrile]
 |  | 46.1 | 33.6 | COc1ccc(-c2nc(N3CC[C@@H]3C)nc3c2CCC3)cc1S(=N)(=O)c1ccc(C#N)cc1C (stereo partly drawn) [Example 846, 4-(2-methoxy-5-(2-((S)-2-methylazetidin-1-yl)-6,7-dihydro-5H-cyclopenta[d]pyrimidin-4-yl)phenylsulfonimidoyl)-3-methylbenzonitrile]

Further lines, the molecule ahead of its results:

Compound | IC50 [1] [nM] | IC50 [2] [nM] | IC50 ([1]; ADP-Glo) [nM] | IC50 ([2]; ADP-Glo) [nM]
CS(=O)(=O)N[C@H]1COCc2cc(-c3nc(N4CC[C@@H]4C(F)(F)F)nc4c3CCC4(F)F)ccc21 [Example 581, N—((R)-7-(7,7-difluoro-2-((R)-2-(trifluoromethyl)azetidin-1-yl)-6,7-dihydro-5H-cyclopenta[d]pyrimidin-4-yl)isochroman-4-yl)methanesulfonamide] | 0.8 | 3.1 |  | 
C[C@H]1[C@H](F)CN1c1nc(-c2ccc3c(c2)COC[C@@H]3NS(C)(=O)=O)c2c(n1)C(F)(F)CC2 [Example 582, N—((R)-7-(7,7-difluoro-2-((2S,3R)-3-fluoro-2-methylazetidin-1-yl)-6,7-dihydro-5H-cyclopenta[d]pyrimidin-4-yl)isochroman-4-yl)methanesulfonamide] | 0.8 | 7 |  | 
C[C@H]1[C@@H](F)CN1c1nc(-c2ccc3c(c2)COC[C@@H]3NS(C)(=O)=O)c2c(n1)C(F)(F)CC2 [Example 583, N—((R)-7-(7,7-difluoro-2-((28,38)-3-fluoro-2-methylazetidin-1-yl)-6,7-dihydro-5H-cyclopenta[d]pyrimidin-4-yl)isochroman-4-yl)methanesulfonamide] | 1.3 | 8.7 |  | 
C[C@@H]1N(c2nc(-c3ccc4c(c3)COC[C@@H]4NS(C)(=O)=O)c3c(n2)C(F)(F)CC3)CC1(F)F [Example 584, N—((R)-7-(2-((S)-3,3-difluoro-2-methylazetidin-1-yl)-7,7-difluoro-6,7-dihydro-5H-cyclopenta[d]pyrimidin-4-yl)isochroman-4-yl)methanesulfonamide] | 2.6 | 19.8 |  | 
C[C@H]1[C@H](O)CN1c1nc(-c2ccc3c(c2)OC[C@@H]3NC2COC2)c2c(n1)C(F)(F)CC2 [Example 585, (2S,3R)-1-[7,7-difluoro-4-[(3R)-3-(oxetan-3-ylamino)-2,3-dihydrobenzofuran-6-yl]-5,6-dihydrocyclopenta[d]pyrimidin-2-yl]-2-methyl-azetidin-3-ol] | 21.2 | 41.6 |  | 
NC1(c2ccc(-c3nc(N4CC[C@@H]4C(F)(F)F)nc4c3CCC4(F)F)cc2)CCOC1 (stereo partly drawn) [Example 587, 3-[4-[7,7-difluoro-2-[(2R)-2-(trifluoromethyl)azetidin-1-yl]-5,6-dihydrocyclopenta[d]pyrimidin-4-yl]phenyl]tetrahydrofuran-3-amine] | 0.4 | 0.5 |  | 
NC1(c2ccc(-c3nc(N4CC[C@@H]4C(F)(F)F)nc4c3CCC4(F)F)cc2F)COC1 [Example 589, 3-[4-[7,7-difluoro-2-[(2R)-2-(trifluoromethyl)azetidin-1-yl]-5,6-dihydrocyclopenta[d]pyrimidin-4-yl]-2-fluoro-phenyl]oxetan-3-amine] | 1.4 | 2.7 |  | 
NC1(c2ccc(-c3nc(N4CCC4C(F)F)nc4c3CCC4(F)F)cc2)COC1 (stereo not drawn) [Example 678, 3-[4-[2-[2-(difluoromethyl)azetidin-1-yl]-7,7-difluoro-5,6-dihydrocyclopenta[d]pyrimidin-4-yl]phenyl]oxetan-3-amine] | 1.8 | 4.6 |  | 
NC1(c2ccc(-c3nc(N4CCC4C(F)(F)F)nc4c3CCC4(F)F)cc2)COC1 (stereo not drawn) [Example 683, 3-[4-[7,7-difluoro-2-[2-(trifluoromethyl)azetidin-1-yl]-5,6-dihydrocyclopenta[d]pyrimidin-4-yl]phenyl]oxetan-3-amine] | 0.9 | 2.4 |  | 
CCN1C(=O)NC2(COc3cc(-c4nc(N5C[C@@H](O)[C@@H]5C)nc5c4CCC5(F)F)ccc32)C1=O (stereo partly drawn) [Example 689, 6-[7,7-difluoro-2-[(2S,3R)-3-hydroxy-2-methyl-azetidin-1-yl]-5,6-dihydrocyclopenta[d]pyrimidin-4-yl]-3′-ethyl-spiro[2H-benzofuran-3,5′-imidazolidine]-2′,4′-dione] | 0.2 | 14.2 |  | 
CC(C)N1C(=O)NC2(COc3cc(-c4nc(N5C[C@@H](O)[C@@H]5C)nc5c4CCC5(F)F)ccc32)C1=O (stereo partly drawn) [Example 690] | 0.3 | 45.4 |  | 
O=C1NC(=O)C2(COc3cc(-c4nc(N5CC[C@@H]5C(F)(F)F)nc5c4CCC5(F)F)ccc32)N1 (stereo partly drawn) [Example 703, 6-[7,7-difluoro-2-[(2R)-2-(trifluoromethyl)azetidin-1-yl]-5,6-dihydrocyclopenta[d]pyrimidin-4-yl]spiro[2H-benzofuran-3,5′-imidazolidine]-2′,4′-dione] | 0.4 | 1 |  | 
COc1cc(-c2nc(N3C[C@@H](O)[C@@H]3C)nc3c2CCC3(F)F)cc(S(C)(=N)=O)c1 (stereo partly drawn) [Example 719, (3-(7,7-difluoro-2-((2S,3R)-3-hydroxy-2-methylazetidin-1-yl)-6,7-dihydro-5H-cyclopenta[d]pyrimidin-4-yl)-5-methoxyphenyl)(imino)(methyl)-λ^6-sulfanone] | 21.7 | 32.1 |  | 
Cc1cc(-c2nc(N3C[C@@H](O)[C@@H]3C)nc3c2CCC3(F)F)cc(S(C)(=N)=O)c1 (stereo partly drawn) [Example 720, (3-(7,7-difluoro-2-((2S,3R)-3-hydroxy-2-methylazetidin-1-yl)-6,7-dihydro-5H-cyclopenta[d]pyrimidin-4-yl)-5-methylphenyl)(imino)(methyl)-λ^6-sulfanone] | 8.8 | 11.6 |  | 
C[C@H]1[C@H](O)CN1c1nc(-c2ccc(C(F)F)c(S(C)(=N)=O)c2)c2c(n1)C(F)(F)CC2 (stereo partly drawn) [Example 721, (5-(7,7-difluoro-2-((2S,3R)-3-hydroxy-2-methylazetidin-1-yl)-6,7-dihydro-5H-cyclopenta[d]pyrimidin-4-yl)-2-(difluoromethyl)phenyl)(imino)(methyl)-λ^6-sulfanone] | 23.2 | 28.3 |  | 
NC1(c2ccc(-c3nc(N4CC[C@@H]4C(F)(F)F)nc4c3CCC4(F)F)cc2)CCS(=O)(=O)CC1 [Example 738, (R)-4-amino-4-(4-(7,7-difluoro-2-(2-(trifluoromethyl)azetidin-1-yl)-6,7-dihydro-5H-cyclopenta[d]pyrimidin-4-yl)phenyl)tetrahydro-2H-thiopyran 1,1-dioxide] | 2 | 2 |  | 
COC(=O)NC1COc2cc(-c3nc(N4C[C@@H](O)[C@@H]4C)nc4c3CCC4(F)F)cc(OC)c21 (stereo partly drawn) [Example 824, Methyl N-[6-[7,7-difluoro-2-[(2S,3R)-3-hydroxy-2-methyl-azetidin-1-yl]-5,6-dihydrocyclopenta[d]pyrimidin-4-yl]-4-methoxy-2,3-dihydrobenzofuran-3-yl]carbamate] |  |  | 8.6 | 91.6
COc1cc(-c2nc(N3CC[C@@H]3C(F)(F)F)nc3c2CCC3(F)F)ccc1C1(N)COC1 [Example 837, (R)-3-(4-(7,7-difluoro-2-(2-(trifluoromethyl)azetidin-1-yl)-6,7-dihydro-5H-cyclopenta[d]pyrimidin-4-yl)-2-methoxyphenyl)oxetan-3-amine] |  |  | 0.7 | 1
